Experimental data reported in patent US6972296B2, “Carboxylic acid derivatives that inhibit the binding of integrins to their receptors” (Encysive Pharmaceuticals Inc., priority 1999, dated 2005).

Target: T1, α4β1 integrin (Homo sapiens, UniProt P05556+P13612)
T1 construct: endogenous in cells; host or cells: Ramos cells
Assay: Adhesion of calcein-labeled Ramos cells to CS1 (fibronectin) peptide conjugated ovalbumin
Assay type: cell-based
Conditions: Ramos cell adhesion to CS1 conjugated ovalbumin
Method: A procedure in which a 26-amino acid peptide containing the CS1 sequence of fibronectin with an N-terminal Cys ([…]) was coupled to maleimide activated ovalbumin was used to determine the efficacy of the compounds synthesized. Bovine serum albumin (BSA) and CS1 conjugated ovalbumin were coated onto 96-well polystyrene plates at 0.5 μg/ml in TBS (50 mM TRIS, pH 7.5; 150 mM NaCl) at 4° C. for 16 hours. The plates were washed three times with TBS and blocked with TBS containing 3% BSA at room temperature for 4 hours. Blocked plates were washed three times in binding buffer (TBS; 1 mM MgCl2; 1 mM CaCl2; 1 mM MnCl2) prior to assay. Ramos cells fluorescently labeled with calcein AM were resuspended in binding buffer (10^7 cells/ml) and diluted 1:2 with same buffer with or without compound. 100 μM of compound was added. The cells were added immediately to the wells (2.5×10^5 cells/well) and incubated for 30 minutes at 37° C. Following three washes with binding buffer, adherent cells were lysed and quantitated using a fluorometer. IC50 is defined as the dose required to give 50% inhibition, measured in μM for Tables 2 and 4. The lower the IC50 value and the greater the percentage of inhibition, the more efficient the compound is at prevention of cell adhesion.

[1] = Table 5, dose required to give 50% inhibition
[2] = Table 7, dose required to give 50% inhibition

T1 sequence (P13612 34-1032): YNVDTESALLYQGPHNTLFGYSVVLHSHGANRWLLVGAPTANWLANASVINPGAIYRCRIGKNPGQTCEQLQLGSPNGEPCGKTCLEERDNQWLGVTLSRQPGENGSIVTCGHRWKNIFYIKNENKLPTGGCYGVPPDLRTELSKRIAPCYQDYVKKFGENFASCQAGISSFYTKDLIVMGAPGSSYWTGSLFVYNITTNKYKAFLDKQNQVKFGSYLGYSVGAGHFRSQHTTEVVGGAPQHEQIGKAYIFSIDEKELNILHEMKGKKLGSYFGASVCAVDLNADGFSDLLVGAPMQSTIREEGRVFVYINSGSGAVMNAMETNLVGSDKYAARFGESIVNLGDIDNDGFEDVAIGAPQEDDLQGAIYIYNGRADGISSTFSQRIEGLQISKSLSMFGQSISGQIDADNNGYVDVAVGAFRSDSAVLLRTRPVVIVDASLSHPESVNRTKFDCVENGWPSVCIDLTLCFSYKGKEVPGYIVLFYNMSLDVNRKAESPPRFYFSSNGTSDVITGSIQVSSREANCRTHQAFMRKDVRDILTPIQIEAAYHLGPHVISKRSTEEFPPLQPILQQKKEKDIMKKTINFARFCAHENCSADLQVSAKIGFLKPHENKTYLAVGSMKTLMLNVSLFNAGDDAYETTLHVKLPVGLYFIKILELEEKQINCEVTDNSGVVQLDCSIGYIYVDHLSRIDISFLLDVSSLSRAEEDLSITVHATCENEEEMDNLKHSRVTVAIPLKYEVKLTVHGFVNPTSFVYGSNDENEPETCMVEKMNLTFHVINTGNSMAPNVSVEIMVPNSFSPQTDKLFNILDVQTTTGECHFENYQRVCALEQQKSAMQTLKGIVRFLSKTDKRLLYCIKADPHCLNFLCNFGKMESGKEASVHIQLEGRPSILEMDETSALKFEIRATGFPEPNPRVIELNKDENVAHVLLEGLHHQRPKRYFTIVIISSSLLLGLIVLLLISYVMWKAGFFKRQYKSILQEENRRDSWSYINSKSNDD
T1 sequence (P05556 21-798): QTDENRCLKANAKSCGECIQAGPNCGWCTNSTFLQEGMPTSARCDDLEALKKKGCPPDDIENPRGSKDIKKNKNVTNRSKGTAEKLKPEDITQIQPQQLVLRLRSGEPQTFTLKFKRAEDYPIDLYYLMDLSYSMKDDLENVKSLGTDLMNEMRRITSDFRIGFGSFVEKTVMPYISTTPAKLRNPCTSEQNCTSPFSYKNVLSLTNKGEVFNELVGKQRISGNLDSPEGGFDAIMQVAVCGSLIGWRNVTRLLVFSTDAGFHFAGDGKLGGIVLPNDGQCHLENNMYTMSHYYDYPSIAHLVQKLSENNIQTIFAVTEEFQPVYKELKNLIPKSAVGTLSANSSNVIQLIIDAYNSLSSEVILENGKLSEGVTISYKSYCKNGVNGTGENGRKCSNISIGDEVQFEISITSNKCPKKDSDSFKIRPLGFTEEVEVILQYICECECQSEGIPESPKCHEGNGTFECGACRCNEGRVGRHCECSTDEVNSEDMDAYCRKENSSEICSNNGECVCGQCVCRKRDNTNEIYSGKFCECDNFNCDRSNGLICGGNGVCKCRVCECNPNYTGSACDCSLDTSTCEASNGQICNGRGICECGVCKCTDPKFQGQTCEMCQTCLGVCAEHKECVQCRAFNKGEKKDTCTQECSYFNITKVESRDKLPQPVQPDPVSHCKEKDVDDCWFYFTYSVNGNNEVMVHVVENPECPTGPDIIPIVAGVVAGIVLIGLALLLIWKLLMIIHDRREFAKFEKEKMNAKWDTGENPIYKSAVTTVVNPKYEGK

CCCc1cn(Cc2ccccc2Cl)c(=O)c(NC(=O)N[C@@H](CC(=O)O)c2ccc(C)cc2)c1O [(3S)-3-[({[1-(2-chlorobenzyl)-4-hydroxy-2-oxo-5-propyl-1,2-dihydropyridin-3-yl]amino}carbonyl)amino]-3-(4-methylphenyl)propanoic acid]
IC50 [1]: 20 nM

Cc1ccc([C@H](CC(=O)O)NC(=O)Nc2c(O)ccn(Cc3c(F)cccc3Cl)c2=O)cc1 [(3S)-3-{[({1-[(2-chloro-6-fluorophenyl)methyl]-4-hydroxy-2-oxo-1,2-dihydro-3-pyridinyl}amino)carbonyl]amino}-3-(4-methylphenyl)propanoic acid]
IC50 (Table 3, 30 minutes at 37° C.): 10 nM

O=C(O)C[C@H](NC(=O)Nc1cccn(Cc2ccccc2Cl)c1=O)c1ccc(F)c(C(F)(F)F)c1
IC50 (Table 4, 30 minutes at 37° C.): 200 nM

Cc1cc(C(CC(=O)O)NC(=O)Nc2c(O)ccn(Cc3ccccc3Cl)c2=O)oc1C (stereo not shown)
IC50 (Table 6, 30 minutes at 37° C.): 115 nM

COc1ccc([C@H](CC(=O)O)NC(=O)Nc2c(O)c3c(n(Cc4c(C)cccc4Cl)c2=O)CCC3)cc1F
IC50 [2]: 3 nM

Cc1ccc([C@H](CC(=O)O)NC(=O)Nc2cccn(Cc3ccccc3C#N)c2=O)cc1
IC50 (Table 4, 30 minutes at 37° C.): 100 nM

Cc1ccc([C@@H](CC(=O)O)NC(=O)Nc2c(O)ccn(Cc3ccccc3Cl)c2=O)cc1
IC50 [1]: 300 nM

CCOc1cccc(Cl)c1Cn1c2c(c(O)c(NC(=O)N[C@@H](CC(=O)O)c3cccc(OC4CC4)c3)c1=O)CCC2 [(3S)-3-[({[1-(2-chloro-6-ethoxybenzyl)-4-hydroxy-2-oxo-2,5,6,7-tetrahydro-1H-cyclopenta[b]pyridin-3-yl]amino}carbonyl)amino]-3-[3-(cyclopropyloxy)phenyl]propanoic acid]
IC50 [2]: 2 nM

CCOc1ccc(Cl)c(Cl)c1Cn1c2c(c(O)c(NC(=O)N[C@@H](CC(=O)O)c3ccc(C)cc3)c1=O)CCC2
IC50 [2]: 5 nM

Cc1ccc(Cn2ccc(O)c(NC(=O)N[C@@H](CC(=O)O)c3ccc(C)cc3)c2=O)cc1
IC50 [1]: 25 nM

CCOc1cccc([C@H](CC(=O)O)NC(=O)Nc2c(O)c(C)nn(Cc3ccccc3Cl)c2=O)c1
IC50 (Table 6, 30 minutes at 37° C.): 5 nM

Cc1cn(Cc2ccccc2Cl)c(=O)c(NC(=O)N[C@@H](CC(=O)O)c2cccc(-c3ccccc3C(F)(F)F)c2)c1O
IC50 [2]: 157 nM

CSc1ccc(C(CC(=O)O)NC(=O)Nc2c(O)c(C)cn(Cc3ccccc3Cl)c2=O)cc1 (stereo not shown)
IC50 [2]: 15 nM

O=C(O)CC(NC(=O)Nc1cccn(Cc2ccccc2Cl)c1=O)c1ccc(Cl)c(Cl)c1 (stereo not shown)
IC50 (Table 4, 30 minutes at 37° C.): 1000 nM

Cc1ccc([C@H](CC(=O)O)NC(=O)Nc2c(O)c3c(n(Cc4ccccc4Cl)c2=O)CCC3)cc1C
IC50 (Table 6, 30 minutes at 37° C.): 18 nM

O=C(O)C[C@H](NC(=O)Nc1c(O)c2c(n(Cc3ccccc3Cl)c1=O)CCC2)c1cccc(C(F)(F)F)c1
IC50 [2]: 10 nM

Cc1ccc([C@H](CC(=O)O)NC(=O)Nc2c(N3CCOCC3)ccn(Cc3ccccc3Cl)c2=O)cc1
IC50 (Table 3, 30 minutes at 37° C.): 1 nM

Cc1ccc([C@H](CC(=O)O)NC(=O)Nc2c(O)ccn(Cc3ccc(S(=O)(=O)N(C)C)cc3)c2=O)cc1
IC50 [1]: 35 nM

CCCc1cn(Cc2c(Cl)cccc2OCC)c(=O)c(NC(=O)N[C@@H](CC(=O)O)c2cccc(OC(C)C)c2)c1O
IC50 [2]: 22 nM

Cc1ccc([C@H](CC(=O)O)NC(=O)Nc2cccn(Cc3ccc(C(F)(F)F)cc3F)c2=O)cc1
IC50 (Table 4, 30 minutes at 37° C.): 3000 nM

Cc1ccc([C@H](CC(=O)O)NC(=O)Nc2c(O)ccn(Cc3cc(C)cc(C)c3)c2=O)cc1
IC50 [1]: 60 nM

Cc1ccc([C@H](CC(=O)O)NC(=O)Nc2c(O)ccn(Cc3c(C)cccc3C)c2=O)cc1
IC50 [1]: 35 nM

CCCc1cn(Cc2ccc(Cl)cc2)c(=O)c(NC(=O)N[C@@H](CC(=O)O)c2ccc(C)cc2)c1O
IC50 [1]: 30 nM

Cc1ccccc1-c1ccc([C@H](CC(=O)O)NC(=O)Nc2c(O)c(C)cn(Cc3ccccc3Cl)c2=O)cc1
IC50 [2]: 55 nM

CCCOc1cccc([C@H](CC(=O)O)NC(=O)Nc2c(O)c3c(n(Cc4c(Cl)cccc4OCC)c2=O)CCC3)c1 [(3S)-3-[({[1-(2-chloro-6-ethoxybenzyl)-4-hydroxy-2-oxo-2,5,6,7-tetrahydro-1H-cyclopenta[b]pyridin-3-yl]amino}carbonyl)amino]-3-(3-propoxyphenyl)propanoic acid]
IC50 [2]: 3 nM

Cc1ccc([C@H](CC(=O)O)NC(=O)Nc2cccn(Cc3ccccc3C(F)(F)F)c2=O)cc1
IC50 (Table 4, 30 minutes at 37° C.): 1000 nM

O=C(O)C[C@H](NC(=O)Nc1c(O)ccn(Cc2ccccc2Cl)c1=O)c1cccc(OC(F)(F)C(F)F)c1
IC50 (Table 6, 30 minutes at 37° C.): 15 nM

C[C@H](CC(=O)O)NC(=O)Nc1c(O)c2c(n(Cc3ccccc3Cl)c1=O)CCC2
IC50 [2]: 15 nM

Cc1ccc([C@H](CC(=O)O)NC(=O)Nc2cccn(Cc3ccc(Cl)cc3)c2=O)cc1
IC50 (Table 4, 30 minutes at 37° C.): 2000 nM

COc1ccc2cc(C(CC(=O)O)NC(=O)Nc3c(O)c(C)cn(Cc4c(C)cccc4Cl)c3=O)ccc2c1 (stereo not shown)
IC50 (Table 6, 30 minutes at 37° C.): 35 nM

CC(=O)Nc1ccc(Br)c(Cn2cccc(NC(=O)N[C@@H](CC(=O)O)c3ccc(C)cc3)c2=O)c1
IC50 (Table 4, 30 minutes at 37° C.): 200 nM

Cc1ccc([C@H](CC(=O)O)NC(=O)Nc2c(Cl)ccn(Cc3ccccc3Cl)c2=O)cc1
IC50 (Table 3, 30 minutes at 37° C.): 20 nM

O=C(O)C[C@H](NC(=O)N[C@H]1CCCN(Cc2cccs2)C1=O)c1ccc2c(c1)OCO2 [(3S)-3-(1,3-benzodioxol-5-yl)-3-[({[(3S)-2-oxo-1-(2-thienylmethyl)hexahydro-3-pyridinyl]amino}carbonyl)amino]propanoic acid]
IC50 (Table 2, 30 minutes at 37° C.): 200 nM

Cn1ccc2cc([C@H](CC(=O)O)NC(=O)Nc3c(O)ccn(Cc4ccccc4Cl)c3=O)ccc21
IC50 (Table 6, 30 minutes at 37° C.): 3 nM

CCc1ccc([C@H](CC(=O)O)NC(=O)Nc2c(O)ccn(Cc3ccccc3Cl)c2=O)cc1
IC50 (Table 4, 30 minutes at 37° C.): 25 nM

CCCOc1ccc(Cl)c(Cn2cc(C)c(O)c(NC(=O)N[C@@H](CC(=O)O)c3ccc(C)cc3)c2=O)c1
IC50 [2]: 6 nM

Cc1cccc(Cn2cccc(NC(=O)N[C@@H](CC(=O)O)c3ccc4c(c3)OCO4)c2=O)c1
IC50 (Table 4, 30 minutes at 37° C.): 1500 nM

CCc1c(O)c(NC(=O)N[C@@H](CC(=O)O)c2ccc(C)cc2)c(=O)n(Cc2ccccc2Cl)c1C
IC50 [1]: 25 nM

CCc1ccc([C@H](CC(=O)O)NC(=O)Nc2c(O)c3c(n(Cc4ccccc4Cl)c2=O)CCC3)cc1
IC50 [2]: 8 nM

CC1(C)Cc2cc([C@H](CC(=O)O)NC(=O)Nc3c(O)c4c(n(Cc5ccccc5Cl)c3=O)CCC4)ccc2O1
IC50 [2]: 3 nM

COc1cc([C@H](CC(=O)O)NC(=O)Nc2c(O)c(C)cn(Cc3ccccc3Cl)c2=O)cc(OC)c1C
IC50 [2]: 12 nM

Cc1cccc([C@H](CC(=O)O)NC(=O)Nc2c(O)c3c(n(Cc4ccccc4Cl)c2=O)CCC3)c1 [(3S)-3-[({[1-(2-chlorobenzyl)-4-hydroxy-2-oxo-2,5,6,7-tetrahydro-1H-cyclopenta[b]pyridin-3-yl]amino}carbonyl)amino]-3-(3-methylphenyl)propanoic acid]
IC50 [2]: 5 nM

Cc1ccc([C@H](CC(=O)O)NC(=O)Nc2c(O)ccn(Cc3cccc(C)c3)c2=O)cc1
IC50 [1]: 55 nM

O=C(O)C[C@H](NC(=O)Nc1c(O)c2c(n(Cc3ccccc3Cl)c1=O)CCC2)c1cccc(OC(F)F)c1 [(3S)-3-{[({1-[(2-chlorophenyl)methyl]-4-hydroxy-2-oxo-2,5,6,7-tetrahydro-1H-cyclopenta[b]pyridin-3-yl}amino)carbonyl]amino}-3-{3-[(difluoromethyl)oxy]phenyl}propanoic acid]
IC50 [2]: 5 nM

Cc1ccc([C@H](CC(=O)O)NC(=O)Nc2c(C)ccn(Cc3ccccc3Cl)c2=O)cc1C [(3S)-3-{[({1-[(2-chlorophenyl)methyl]-4-methyl-2-oxo-1,2-dihydro-3-pyridinyl}amino)carbonyl]amino}-3-(3,4-dimethylphenyl)propanoic acid]
IC50 (Table 3, 30 minutes at 37° C.): 10 nM

COc1cc(Cn2cc(C)c(O)c(NC(=O)N[C@@H](CC(=O)O)c3ccc(C)cc3)c2=O)cc(OC)c1
IC50 (Table 6, 30 minutes at 37° C.): 70 nM

Cc1cn(Cc2ccccc2Cl)c(=O)c(NC(=O)NC(CC(=O)O)c2ccc(C3CC3)cc2)c1O (stereo not shown)
IC50 [2]: 35 nM

CCCc1cn(Cc2c(Cl)cccc2OC)c(=O)c(NC(=O)N[C@@H](CC(=O)O)c2ccc(C)cc2)c1O
IC50 (Table 6, 30 minutes at 37° C.): 15 nM

Cc1ccc([C@H](CC(=O)O)NC(=O)Nc2c(O)c(C(C)C)cn(Cc3ccccc3Cl)c2=O)cc1
IC50 (Table 6, 30 minutes at 37° C.): 60 nM

COc1ccn(Cc2ccccc2Cl)c(=O)c1N(C)C(=O)N[C@@H](CC(=O)O)c1ccc(C)cc1
IC50 [2]: 2000 nM

COc1ccc2cc([C@H](CC(=O)O)NC(=O)Nc3c(O)ccn(Cc4ccccc4Cl)c3=O)ccc2c1
IC50 (Table 6, 30 minutes at 37° C.): 15 nM

Cc1ccc([C@H](CC(=O)O)NC(=O)Nc2c(O)ccn(Cc3ccccc3C(F)(F)F)c2=O)cc1
IC50 [1]: 20 nM

Cc1ccc([C@H](CC(=O)O)NC(=O)Nc2cccn(Cc3c(N)cccc3Cl)c2=O)cc1
IC50 (Table 4, 30 minutes at 37° C.): 2000 nM

O=C(O)C[C@H](NC(=O)N[C@H]1CCCCN(Cc2cccs2)C1=O)c1ccc2c(c1)OCO2
IC50 (Table 2, 30 minutes at 37° C.): 15 nM

O=C(O)CC(NC(=O)Nc1c(O)ccn(Cc2ccccc2Cl)c1=O)c1cc2ccccc2o1 (stereo not shown)
IC50 (Table 6, 30 minutes at 37° C.): 140 nM

Cc1ccc([C@H](CC(=O)O)NC(=O)Nc2c(O)c(C)cn(Cc3c(C)cccc3Cl)c2=O)cc1 [(3S)-3-[({[1-(2-chloro-6-methylbenzyl)-4-hydroxy-5-methyl-2-oxo-1,2-dihydropyridin-3-yl]amino}carbonyl)amino]-3-(4-methylphenyl)propanoic acid]
IC50 [1]: 10 nM

COc1ccc([C@H](CC(=O)O)NC(=O)Nc2c(C)ccn(Cc3ccccc3Cl)c2=O)cc1C
IC50 (Table 3, 30 minutes at 37° C.): 15 nM

CCOc1ccc2cc([C@H](CC(=O)O)NC(=O)Nc3c(O)c4c(n(Cc5ccccc5Cl)c3=O)CCC4)ccc2c1
IC50 [2]: 15 nM
